Laboratory results reported in patent US4888287A, “Rapid differentiation of fungi from bacteria using polyene antibiotics” (Eastman Kodak Company, priority 1986, dated 1989).

Columns and labels:
E. coli = assay: Inhibition of RIND IX reduction by E. coli (gram-negative) in solution (Example 1, Table II); assay type: cell-based, Escherichia coli (ATCC 25922)
Method: (§1) gram-negative microorganism Escherichia coli (ATCC 25922), gram-positive microorganism Staphylococcus aureus (ATCC 25923), and Candida albicans yeast cells (ATCC 14053), brain heart infusion broth (BHI) and Sabaroud's dextrose broth (SAB) from Difco Laboratories (Detroit, Michigan, U.S.A.), and Aspergillus flavus (ATCC 20047), a mold from American Type Culture Collection (Rockville, Maryland, U.S.A.).
(§2) E. coli and S. aureus were grown overnight in BHI broth at 37° C. C. albicans and A. flavus were grown overnight at 25° C. in SAB broth with agitation. […]
(§3) Test solutions were prepared by adding in order: 1.2 ml of HEPES buffer, 50 μl glucose solution, 1.5 ml of RIND IX dispersion, 100 μl of antibiotic solution, 100 μl of cell suspension and 25 μl of ETA solution. […] Optical density readings (OD) were measured at 635 nm at 0 minutes and after incubation at 37° C. for 30 minutes for test and Control solutions, and the change in density (ΔOD) was determined. Table II below lists the results, expressed as corrected percent inhibition of the reduction of the RIND compound. The corrected percent inhibition is calculated by dividing the difference between the ΔOD obtained from the Control without antibiotic and the ΔOD of the test solution, by ΔOD of the Control without antibiotic. All readings were corrected by subtracting readings of the appropriate background control. […]

C. albicans = assay: Inhibition of RIND IX reduction by C. albicans (yeast) in solution (Example 1, Table II); assay type: cell-based, Candida albicans (ATCC 14053)
Method: E. coli and S. aureus were grown overnight in BHI broth at 37° C. C. albicans and A. flavus were grown overnight at 25° C. in SAB broth with agitation. The cells were harvested by centrifugation, washed and resuspended in 0.05 molar N-2-hydroxyethylpiperazine-N'-2-ethanesulfonic acid (HEPES) buffer (pH 7.8).
Dispersions containing RIND compounds were prepared by dissolving, for example, RIND VII from Table I above in N,N-dimethylformamide (DMF) at 16 mg compound per ml of solvent. An aliquot (250 μl) of the resulting solution was added to 500 μl of TRITON X-100 surfactant. This mixture was then added dropwise with stirring to 25 ml of 0.05 molar HEPES buffer.
The following materials were used in this example: stock solutions of RIND IX compound dispersion prepared as described above, glucose (10% in water), trimethyl-1,4-benzoquinone ETA (1.5 mg/ml methanol), and the antibiotics (25 mg/ml in dimethyl sulfoxide, except that filipin was 12.5 mg/ml of solvent). Bacteria and yeast were grown as described above. The approximate final cell concentrations in the assay mixture were 4.2×10^8 cells/ml of E. coli, 7.1×10^8 cells/ml of S. aureus, and 7×10^5 of C. albicans.
Test solutions were prepared by adding in order: 1.2 ml of HEPES buffer, 50 μl glucose solution, 1.5 ml of RIND IX dispersion, 100 μl of antibiotic solution, 100 μl of cell suspension and 25 μl of ETA solution. Cell control solutions contained all reagents except antibiotics. Background controls consisted of both buffer and solution controls. The buffer control contained all reagents except antibiotics and cells. The solution control contained all reagents except cells. Optical density readings (OD) were measured at 635 nm at 0 minutes and after incubation at 37° C. for 30 minutes for test and Control solutions, and the change in density (ΔOD) was determined. […] The corrected percent inhibition is calculated by dividing the difference between the ΔOD obtained from the Control without antibiotic and the ΔOD of the test solution, by ΔOD of the Control without antibiotic. All readings were corrected by subtracting readings of the appropriate background control.
Solutions containing 2.9 ml HEPES, 50 μl of the antibiotic solution, and 100 μl cell solution were incubated at 37° C. for 30 minutes, centrifuged for 10 minutes and decanted. The resulting pellet was then treated with 1.4 ml HEPES, 50 μl glucose solution, 1.5 ml RIND IX dispersion and 25 μl ETA solution, mixed well and the optical densities recorded as described above in Method 1. The corrected percent inhibition data was calculated as described in Method 1 above.

S. aureus = assay: Inhibition of RIND IX reduction by S. aureus (gram-positive) in solution (Example 1, Table II); assay type: cell-based, Staphylococcus aureus (ATCC 25923); settings: Method 1, 635 nm, 37° C., 30 min
Method: as §1, §2, §3

[1] = Method 1, 635 nm, 37° C., 30 min
[2] = Method 2, preincubation for 1 hour, 635 nm

Compound: C[C@@H]1[C@H](O)[C@@H](C)/C=C/C=C/C=C/C=C/C=C/C=C/C=C/[C@H](O[C@@H]2O[C@H](C)[C@@H](O)[C@H](N)[C@@H]2O)C[C@@H]2O[C@](O)(C[C@@H](O)C[C@@H](O)[C@H](O)CC[C@@H](O)C[C@@H](O)CC(=O)O[C@H]1C)C[C@H](O)[C@H]2C(=O)O [Amphotericin B, amphotericin B]
- Corrected % Inhibition (E. coli; [1]): 15.1%

Compound: C[C@@H]1[C@H](O)[C@@H](C)/C=C/C=C/CC/C=C/C=C/C=C/C=C/C(O[C@H]2O[C@H](C)[C@@H](O)[C@H](N)[C@@H]2O)CC2O[C@](O)(CC(O)C(O)CCC(O)CC(O)CC(O)CC(=O)O[C@H]1C)CC(O)C2C(=O)O (stereo partly shown) [Nystatin, nystatin]
- Corrected % Inhibition (C. albicans; [1]): 76.2%
- Corrected % Inhibition (S. aureus): 9.8%

Compound: C[C@@H]1C/C=C/C=C/C=C/C=C/[C@H](O[C@@H]2O[C@H](C)[C@@H](O)[C@H](N)[C@@H]2O)C[C@@H]2O[C@](O)(C[C@@H](O)C[C@H]3O[C@@H]3/C=C/C(=O)O1)C[C@H](O)[C@H]2C(=O)O [Natamycin, natamycin]
- Corrected % Inhibition (C. albicans; [1]): 77.9%
- Corrected % Inhibition (S. aureus): 0.3%

Compound: candicidin
- Corrected % Inhibition (C. albicans; [2]): 62.8%
- Corrected % Inhibition (E. coli; [2]): 12.5%
